{
  "source": "patent US6825348B2",
  "about": "“Antiviral compounds” (Academia Sinica, priority 2002, dated 2004)",
  "key": {"[1]": {"system": "herpes simplex type 1 virus (HSV-1) (KOS)", "test": "Inhibition of HSV-1 cytopathogenicity in Vero cell culture", "format": "cell-based", "settings": "Vero cell culture; 50% inhibition of virus-induced cytopathogenicity; mean of duplicates; for 1:1 (W/W) mixtures IC50 refers to known antiviral drugs"}, "[2]": {"system": "herpes simplex type 2 virus (HSV-2) (G)", "test": "Inhibition of HSV-2 cytopathogenicity in Vero cell culture", "format": "cell-based", "settings": "50% inhibition of cytopathogenicity, for 1:1 mixtures IC50 refers to known antiviral drugs"}, "[3]": {"system": "thymidine kinase-positive (TK+) varicella-zoster virus (YS)", "test": "Inhibition of TK+ VZV cytopathogenicity in Vero cell culture", "format": "cell-based", "settings": "Vero cell culture; 50% inhibition of cytopathogenicity; for 1:1 mixtures IC50 refers to known antiviral drugs"}, "[4]": {"system": "thymidine kinase-deficient (TK−) varicella-zoster virus (YS/R)", "test": "microbe, parasite or virus in culture", "format": "cell-based", "settings": "Vero cell culture; 50% inhibition of cytopathogenicity; for 1:1 mixtures IC50 refers to known antiviral drugs"}, "[5]": {"system": "human cytomegalovirus (AD-169)", "test": "Inhibition of HCMV cytopathogenicity in Vero cell culture", "format": "cell-based", "settings": "Vero cell culture; 50% inhibition of cytopathogenicity; for 1:1 mixtures IC50 refers to known antiviral drugs"}, "HIV-1 (IIIB)": {"system": "HIV-1 (IIIB)", "test": "microbe, parasite or virus in culture", "format": "cell-based", "settings": "MT4 cells, average of duplicates"}, "HIV-2 (LAV-2)": {"system": "HIV-2 (LAV-2)", "test": "Inhibition of HIV-2 cytopathogenicity in MT4 cells", "format": "cell-based, human immunodeficiency virus", "settings": "MT4 cells, average of duplicates"}, "[6]": {"system": "moloney murine sarcoma virus (MSV)", "test": "Inhibition of MSV cytopathogenicity in CEM cells (cell-protection assay)", "format": "cell-based", "settings": "CEM cells, average of duplicates"}, "[7]": {"test": "Lipophilicity, 1-octanol/water partition coefficient", "settings": "P = [substrate]1-octanol/[substrate]H2O; phosphate buffer 0.10 M"}, "[8]": {"test": "Solubility in water (phosphate buffer, UV absorbance)", "settings": "phosphate buffer 0.10 M, pH 6.8, agitated 20 h"}},
  "data": [
    {"substance": "[1-(Guanine-9-yl-ethoxy)methyl]phosphono-6-yl-(Z)-4-(ethylidene)-2,3-dimethoxy-Δ^a,b-butenolide [Compound 29]", "values": [
      {"measurement": "IC50 HSV-1 (KOS)", "setting": "[1]", "result": 0.42, "unit": "µg/mL"},
      {"measurement": "IC50 HSV-2 (G)", "setting": "[2]", "result": 0.28, "unit": "µg/mL"},
      {"measurement": "IC50 TK+VZV (YS)", "setting": "[3]", "result": 0.0070, "unit": "µg/mL"},
      {"measurement": "IC50 TK−VZV (YS/R)", "setting": "[4]", "result": 0.0080, "unit": "µg/mL"},
      {"measurement": "IC50 HCMV (AD-169)", "setting": "[5]", "result": 0.020, "unit": "µg/mL"},
      {"measurement": "IC50 HIV-1 (IIIB)", "setting": "HIV-1 (IIIB)", "result": 6.0, "unit": "µg/mL"},
      {"measurement": "IC50 HIV-2 (LAV-2)", "setting": "HIV-2 (LAV-2)", "result": 7.1, "unit": "µg/mL"},
      {"measurement": "IC50 MSV", "setting": "[6]", "result": 0.020, "unit": "µg/mL"},
      {"measurement": "HeLa cell, concentration causing microscopically visible change or disruption in about 50% of the cell sheet", "setting": "HeLa cells", "result": 8.8, "unit": "µg/mL"},
      {"measurement": "Vero cell, concentration causing microscopically visible change or disruption in about 50% of the cell sheet", "setting": "Vero cells", "result": 6.6, "unit": "µg/mL"},
      {"measurement": "MT4 cell, concentration reducing the number of viable uninfected cells by 50%", "setting": "MT4 cells", "result": 14, "unit": "µg/mL"},
      {"measurement": "CEM cell, concentration reducing the number of viable uninfected cells by 50%", "setting": "CEM cells", "result": 13, "unit": "µg/mL"},
      {"measurement": "log P (1-octanol/water)", "setting": "[7]", "result": 0.79},
      {"measurement": "solubility in water", "setting": "[8]", "result": 2050, "unit": "µg/mL"}
    ]}
  ]
}
